Test [1] concerns the target lens aldose reductase (Bos taurus, UniProt P16116). As to the kind of experiment: in vitro aldose reductase inhibition test (modified Hayman and Kinoshita procedure). Format: biochemical, bovine. The conditions noted are these: statement in words. An excerpt:
In the present case the procedure of Hayman and Kinoshita is modified in that the final chromatography step is omitted in the preparation of the enzyme from bovine lens.

The conditions of test [2]: Acheson et al., Gastroenterology, 37, 735 (1959); cited from earlier work.

As for `O=C(O)CCC(=O)c1ccc2c(c1)-c1cccc3cccc-2c13` [Florantyrone, γ-Oxo-8-fluoranthenebutanoic acid], the “inhibitor of lens aldose reductase” value in test [1] is reported as “potent inhibitor of lens aldose reductase”. Moreover, in test [2], the hydrocholeretic activity entry was “has hydrocholeretic activity”.

(Values after US4361582A, “Aldose reductase inhibition by γ-oxo-8-fluoranthenebutanoic acid” (Ayerst, McKenna & Harrison Inc., priority 1981, dated 1982).)
